The record followed here is patent US20260158158A1, “ANTIBODY-DRUG CONJUGATE, PREPARATION METHOD THEREFOR AND USE THEREOF” (HANGZHOU ADCORIS BIOPHARMA CO., LTD, priority 2023, published 2026).

What all share (assay type): in vivo, BALB/c nude mice
In test [1] the test system is Pancreatic cancer cell BXPC-3. The test is described as follows: Tumor growth inhibition in BXPC-3 CDX model (nude mouse xenograft). The note with it: BIW × 3 weeks. The source says:
(§1) Method for testing tumor inhibitory activity of ADC in nude mouse xenograft model (cell-derived xenograft, CDX): Pancreatic cancer cell BXPC-3, lung adenocarcinoma cell NCI-H1975, triple-negative breast cancer cell MDA-MB-231, and esophageal squamous carcinoma cell KYSE-150 were subjected to monolayer culturing in vitro. When cell saturation reached 80%-90%, the cells were digested with trypsin-EDTA and centrifuged. The supernatant was discarded. The cells were re-suspended in PBS. The cell suspension was adjusted to an appropriate concentration. BXPC-3, NCI-H1975, MDA-MB-231, and KYSE-150 cells (2-10×10^6 cells/0.1 mL) were separately subcutaneously inoculated into BALB/c nude mice. The animals and the growth of transplanted tumors were observed regularly. When the tumor volume reached approximately 100-200 mm^3, the mice were randomly divided into groups based on tumor volume and body weight, with 6 animals per group. The animals were administered regularly via intravenous injection. Twice a week, the longer diameter a (mm) and shorter diameter b (mm) of the tumor were measured with a vernier caliper and the body weight of the mice was measured. The tumor volume (V) was calculated according to the following formula: V=½×a×b^2 (mm^3), in which a and b represented the length and width of the tumor, respectively. A growth curve was plotted. Finally, the tumor was excised and weighed. […]

Test [2] deals with lung adenocarcinoma cell NCI-H1975. The test is described as follows: Tumor growth inhibition in NCI-H1975 model (nude mouse xenograft). The conditions noted are these: NCI-H1975, 10 mg/kg iv, BIW × 2 weeks.
Source text: as §1

For test [3], the system named is triple-negative breast cancer cell MDA-MB-231. The test is described as follows: Tumor growth inhibition in MDA-MB-231 CDX model (nude mouse xenograft). The conditions noted are these: 10 mg/kg iv, BIW × 3 doses.
Source text: as §1

Test [4] deals with esophageal squamous carcinoma cell KYSE-150. In words: Tumor growth inhibition in KYSE-150 CDX model (nude mouse xenograft). The conditions noted are these: 10 mg/kg iv, BIW × 2 weeks.
Source text: as §1

As for `CC[C@@]1(O)C(=O)OCc2c1cc1n(c2=O)Cc2c-1nc1cc(F)c(C)c3c1c2[C@@H](NC(=O)CONC)CC3` [Compound 10], the “Tumor inhibition on D33” value in test [1] (0.12 mg/kg iv) is given as 16.75%.
As for `Nc1ccn([C@@H]2O[C@H](CO)[C@@H](O)C2(F)F)c(=O)n1` [Gemcitabine], in test [1] (90 mg/kg iv), the “Tumor inhibition on D33” value worked out at 41.52%.
Consider `CC(=O)O[C@H]1C(=O)[C@@]2(C)[C@H]([C@H](OC(=O)c3ccccc3)[C@]3(O)C[C@H](OC(=O)[C@H](O)[C@@H](NC(=O)c4ccccc4)c4ccccc4)C(C)=C1C3(C)C)[C@]1(OC(C)=O)CO[C@@H]1C[C@@H]2O` [Paclitaxel], for which the entries for the “Tumor inhibition on D21” value in test [2] and in test [4] were 94.5% and 78.00%, respectively. In test [3], the “Tumor inhibition on D25” value is given as 79.96%.
